Source: patent US4088772A, “Methanodibenzocycloheptapyrroles” (E. I. Du Pont de Nemours and Company, priority 1975, dated 1978)
Counter-ions that a name gives are not always drawn. Like-named read-outs stand apart in the source and are kept apart here.

Columns and labels:
female white mice = experiment: animal or person; conditions: Mus musculus, po
in vivo = conditions: mouse, in vivo, po
[1] = test system: phenylquinone-induced writhing; experiment: Phenylquinone writhing test (analgesia); type: in vivo, mouse (Carworth CF1 S female); conditions: Mus musculus, po
Source text: This mouse test is predictive of analgesic response in humans. [E. Siegmund, R. Cadmus and G. Lee, Proc. Soc.
ED50 values were obtained graphically from the data.

[2] = read-out: Catatonia ED50, Table 1, oral, mice
[3] = read-out: Exploratory Loss Visual ED50, Table 1, oral, mice
[4] = read-out: Muscle Tone ED50, Table 1, oral, mice
[5] = read-out: Ptosis ED50, Table 1, oral, mice
[6] = read-out: Reflexes Grip ED50, Table 1, oral, mice
[7] = read-out: Reflexes Lift ED50, Table 1, oral, mice
[8] = read-out: Reflexes Pinna ED50, Table 1, oral, mice
[9] = read-out: Catatonia ED50, Table III, oral, mice
[10] = read-out: Exploratory Loss Visual ED50, Table III, oral, mice
[11] = read-out: Muscle Tone ED50, Table III, oral, mice
[12] = read-out: Ptosis ED50, Table III, oral, mice
[13] = read-out: Reflexes Grip ED50, Table III, oral, mice
[14] = read-out: Reflexes Lift ED50, Table III, oral, mice
[15] = read-out: Reflexes Pinna ED50, Table III, oral, mice

Row | Structure (SMILES) | ED50 (female white mice; [2]) [mg/kg] | ED50 (female white mice; [3]) [mg/kg] | ED50 (female white mice; [4]) [mg/kg] | ED50 (female white mice; [5]) [mg/kg] | ED50 (female white mice; [6]) [mg/kg] | ED50 (female white mice; [7]) [mg/kg] | ED50 (female white mice; [8]) [mg/kg] | ED50 (in vivo) [mg/kg] | LD50 at 24 h (in vivo) [mg/kg] | ED50 ([1]; Table 1, mice) [mg/kg] | ED50 (female white mice; read-out: Ptosis ED50, Table 1, Extrapolated value) [mg/kg] | ED50 (female white mice; [9]) [mg/kg] | ED50 (female white mice; [10]) [mg/kg] | ED50 (female white mice; [11]) [mg/kg] | ED50 (female white mice; [12]) [mg/kg] | ED50 (female white mice; [13]) [mg/kg] | ED50 (female white mice; [14]) [mg/kg] | ED50 (female white mice; [15]) [mg/kg] | ED50 ([1]; Table III, mice) [mg/kg]
1 | C=C1CC(CN2CC3c4ccccc4C4CC3(C2)c2ccccc24)C1 (stereo not shown) [Example 20, 2-(3-Methylenecyclobutylmethyl)-2,3,8,12b-tetrahydro-1H-3a,8-methanodibenzo[3,4:6,7]cyclohepta[1,2-c]pyrrole] | 13 | 21 | 15 | 11 | 362 | 21 | 24 | > 324 | > 324 | 8.2 | – | – | – | – | – | – | – | – | –
2 | C1=C(CN2CC3c4ccccc4C4CC3(C2)c2ccccc24)CCC1 (stereo not shown) [Example 21, 2-(1-Cyclopentenylmethyl)-2,3,8,12b-tetrahydro-1H-3a,8-methanodibenzo[3,4:6,7]cyclohepta[1,2-c]pyrrole] | 20 | 7 | 36 | 7 | 300 | 36 | 20 | > 324 | > 324 | 2.9 | – | – | – | – | – | – | – | – | –
3 | c1ccc2c(c1)C1CC3(CN(CCC4CCCC4)CC23)c2ccccc21 (stereo not shown) [Example 22, 2-(2-Cyclopentylethyl)-2,3,8,12b-tetrahydro-1H-3a,8-methanodibenzo[3,4:6,7]cyclohepta[1,2-c]pyrrole] | 18 | 32 | 3.6 | – | 265 | 17 | 11 | > 324 | > 324 | 10 | 3 | – | – | – | – | – | – | – | –
4 | C1=CC(CCN2CC3c4ccccc4C4CC3(C2)c2ccccc24)CC1 (stereo not shown) [Example 23, 2-(2-Cyclopent-2-enylethyl)-2,3,8,12b-tetrahydro-1H-3a,8-methanodibenzo[3,4:6,7]cyclohepta[1,2-c]pyrrole] | 37 | 57 | 37 | 46 | 265 | 88 | 62 | > 324 | > 324 | 15 | – | – | – | – | – | – | – | – | –
5 | c1ccc2c(c1)C1CC3(CN(CCCC4CCCC4)CC23)c2ccccc21 (stereo not shown) [Example 24, 2-(3-Cyclopentylpropyl)-2,3,8,12b-tetrahydro-1H-3a,8-methanodibenzo[3,4:6,7]cyclohepta[1,2-c]pyrrole] | 7 | 7 | – | – | > 324 | 17 | 17 | > 324 | > 324 | 6 | – | – | – | – | – | – | – | – | –
6 | C1=CCC(CN2CC3c4ccccc4C4CC3(C2)c2ccccc24)=CC1 (stereo not shown) [Example 28, 2-(1,4-Cyclohexadienylmethyl)-2,3,8,12b-tetrahydro-1H-3a,8-methanodibenzo[3,4:6,7]cyclohepta[1,2-c]pyrrole] | 24 | 29 | 37 | 17 | > 324 | 57 | 32 | > 324 | > 324 | 8.6 | – | – | – | – | – | – | – | – | –
7 | c1ccc2c(c1)C1CC3(CN(CCC4CCCCC4)CC23)c2ccccc21 (stereo not shown) [Example 29, 2-(2-Cyclohexylethyl)-2,3,8,12b-tetrahydro-1H-3a,8-methanodibenzo[3,4:6,7]cyclohepta[1,2-c]pyrrole] | 21 | 24 | 24 | 17 | 290 | 78 | 50 | > 324 | > 324 | 28 | – | – | – | – | – | – | – | – | –
8 | c1ccc2c(c1)C1CC3(CN(CCCC4CCCCC4)CC23)c2ccccc21 (stereo not shown) [Example 30, 2-(3-Cyclohexylpropyl)-2,3,8,12b-tetrahydro-1H-3a,8-methanodibenzo[3,4:6,7]cyclohepta[1,2-c]pyrrole] | 12 | 4 | – | 4 | 200 | 12 | – | > 324 | > 324 | 7 | – | – | – | – | – | – | – | – | –
9 | c1ccc2c(c1)C1CC3(CN(CCCCC4CCCCC4)CC23)c2ccccc21 (stereo not shown) [Example 31, 2-(4-Cyclohexylbutyl)-2,3,8,12b-tetrahydro-1H-3a,8-methanodibenzo[3,4:6,7]cyclohepta[1,2-c]pyrrole] | 26 | 21 | 24 | 17 | > 324 | 37 | 32 | > 324 | > 324 | 14 | – | – | – | – | – | – | – | – | –
10 | c1ccc2c(c1)C1CC3(CN(CC4CCCCCC4)CC23)c2ccccc21 (stereo not shown) [Example 32, 2-Cycloheptylmethyl-2,3,8,12b-tetrahydro-1H-3a,8-methanodibenzo[3,4:6,7]cyclohepta[1,2-c]pyrrole] | 12 | 7 | 36 | < 4 | 200 | 20 | 60 | > 324 | > 324 | 2.9 | – | – | – | – | – | – | – | – | –
11 | CC(C1CCCC1)N1C[C@@H]2c3ccccc3[C@@H]3C[C@@]2(C1)c1ccccc13 (stereo partly shown) [Example 50, 2-(1-Cyclopentylethyl)-2,3,8,12b-tetrahydro-1H-3a,8-methanodibenzo[3,4:6,7]cyclohepta[1,2-c]pyrrole] | 20 | 20 | 36 | 60 | 300 | 60 | 36 | > 324 | > 324 | 23 | – | – | – | – | – | – | – | – | –
12 | CC1CCCC1CN1C[C@@H]2c3ccccc3[C@@H]3C[C@@]2(C1)c1ccccc13 (stereo partly shown) [Example 51, 2-(2-Methylcyclopentylmethyl)-2,3,8,12b-tetrahydro-1H-3a,8-methanodibenzo[3,4:6,7]cyclohepta[1,2-c]pyrrole] | 60 | 100 | 60 | 36 | 300 | 60 | 36 | > 324 | > 324 | 10 | – | – | – | – | – | – | – | – | –
13 | CC1CCC(CN2C[C@@H]3c4ccccc4[C@@H]4C[C@@]3(C2)c2ccccc24)C1 (stereo partly shown) [Example 52, 2-(3-Methylcyclopentylmethyl)-2,3,8,12b-tetrahydro-1H-3a,8-methanodibenzo[3,4:6,7]cyclohepta[1,2-c]-pyrrole] | 12 | 12 | 12 | 7 | 200 | 12 | 7 | > 324 | > 324 | 5 | – | – | – | – | – | – | – | – | –
14 | c1ccc2c(c1)[C@@H]1C[C@@]3(CN(CC4CCCO4)C[C@H]23)c2ccccc21 (stereo partly shown) [Example 62, 2-(2-Tetrahydrofurylmethyl)-2,3,8,12b-tetrahydro-1H-3a,8-methanodibenzo[3,4:6,7]cyclohepta[1,2-c]pyrrole] | 20 | 12 | 20 | – | 200 | 20 | – | – | > 324 | 7 | – | – | – | – | – | – | – | – | –
15 | CC(O)c1ccc2c(c1)[C@]13C[C@H]2c2ccccc2[C@H]1CN(CC1CCCC1)C3 (stereo partly drawn) [Example 67, 5-(α-Hydroxyethyl)-2-cyclopentylmethyl-2,3,8,12b-tetrahydro-1H-3a,8-methanodibenzo[3,4:6,7]cyclohepta[1,2-c]-pyrrole Hydrochloride] | – | – | – | – | – | – | – | – | > 450 | – | – | 5 | 5 | 6 | 3.6 | 187 | 21 | 5.6 | 3.4
16 | C=CCC(O)c1ccc2c(c1)[C@]13C[C@H]2c2ccccc2[C@H]1CN(CC1CCCC1)C3 (stereo partly shown) [Example 75, 5-[1-(1-Hydroxy-3-butenyl)]-2-cyclopentylmethyl-2,3,8,12b-tetrahydro-1H-3a,8-methanodibenzo[3,4:6,7]cyclohepta[1,2-c]pyrrole Hydrochloride] | – | – | – | – | – | – | – | – | > 324 | – | – | 36 | 60 | 36 | 12 | 200 | 20 | 7 | 11
